Results reported in patent publication US7385026B1, “Modified ghrelin polypeptides” (priority 1999, dated 2008).
Where “and” joins values, the source holds several entries; their conditions need not be identical. Equal values may be shown once. One block for each molecule: values may come before it.

Legend:
[1] = system: amino-terminal antibody (anti-[C-Cys]-rat ghrelin [1-11] antigen); test: Radioimmunoassay: inhibition of binding of labeled rat ghrelin to amino-terminal antibody; design: species or system rabbit
[2] = system: rat pituitary cultured cells; test: Intracellular calcium change in primary anterior pituitary cells; assay type: cell-based; details: FIG. 5a
rat GHS-receptor (GHR-R) = target: T1, rat GHS-receptor (GHR-R) (Rattus norvegicus, UniProt O08725); test: Ca-releasing activity (increase in intracellular calcium) in CHO-GHSR62 cells, FLIPR; assay type: cell-based
T1 construct: A full-length cDNA for rat GHR-R was obtained by RT-PCR; expressed in transfected cells
In short: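 CHO cells stably expressing full-length rat GHS-R (CHO-GHSR62) were cultured 12–15 h, loaded with 4 μM Fluo4 for 1 h and washed with Hank's BSS containing 20 mM Hepes and 2.5 mM probenecid. Ca-releasing activity of ghrelin peptides, fragments or derivatives was read by FLIPR as the fluorescence change after sample addition.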

[3] = target: carboxyl-terminal antibody (anti-[C-Cys]-rat ghrelin [13-28] antigen); test: Radioimmunoassay: inhibition of binding of labeled rat ghrelin to carboxyl-terminal antibody; design: species or system rabbit; details: FIG. 9b, amount per reaction tube
Source text: Using antibodies raised against amino- and carboxyl-terminal rat ghrelin peptides as antigens, ghrelin in various living tissues was quantified by radioimmunoassay (RIA).
Rabbits were immunized with [C-Cys]-rat ghrelin [1-11] (rat ghrelin peptide of amino acids 1 to 11 from amino-terminal having cysteine bound to the carboxyl-terminal thereof) and [C-Cys]-rat ghrelin [13-28] (rat ghrelinpeptideof aminoacids 13 to 28 from amino-terminal having cysteine bound to the carboxyl-terminal thereof) as antigens, to form amino-terminal antibody (anti-[C-Cys]-rat ghrelin [1-11] antigen) and carboxyl-terminal antibody (anti-[C-Cys]-rat ghrelin [13-28] antigen) respectively.
That is, it was confirmed that the carboxyl-terminal antibodyhas the same affinity for ghrelin modified with fatty acid and for ghrelin from which fatty acid was released.

Wister male rats = test: Cell growth: 3H-thymidine incorporation into bone marrow, duodenum, jejunum; assay type: in vivo, rat; details: 20 μg/kg i.v., 18 hours after administration
Method: To examine the action of administered ghrelin on promotion of cell growth, the f ollowing experiment was conducted. Twenty μg/kg of rat ghrelin or thioether-type rat ghrelin (Compound 18 [Cys^3(octyl)]-hghrelin) was administered into tail veins of Wister male rats (7.5-week-old) respectively. Seventeen hours after administration, ^3H-thymidine was administered into tail veins, and 1 hour thereafter, duodenum, jejunum and bone marrow were excised. The incorporation of […] to DNA fractions of these tissues was measured in order to examine the cell growth-promoting action of ghrelin and ghrelin derivatives. The tissues were cut thin and homogenized using a Polytron homogenizer, and after centrifugation, the supernatant was precipitated with trichloroacetic acid to give a DNA fraction. The radioactivity of the DNA fraction was measured by a liquid scintillation counter.
Numerical values show the ratio (%) of incorporation of radioisotope relative to the mean (in triplicate) of the comparative example (i.e. the group given physiological saline).

IGS-SD strain rats = test: GH-releasing activity of long-chain ghrelin derivatives in rat (plasma GH 15 min after i.v.); assay type: in vivo
Method: Fifteen minutes after administration, plasma was collected, and the concentration of GH in plasma was measured by radioimmunoassay (Biotrak/Amersham). Separately, 0.2% bovine serum albumin (BSA)-physiological saline, 6 nmol/kg rGhrelin and hGhrelin, or 80 nmol/kg Ipamorelin (Compound 80) was administered into other rats as the control, respectively, and the concentrations of GH in plasma in 15 minutes after administration were compared (for each sample, n=3).

Wistar strain male rats = test: Change of GH level in plasma over time after i.v. administration; assay type: in vivo, rat; details: 5 μg/head i.v.; for GH level in plasma, individual rats (Rat 1-5): listed as [Cys^3(Octyl)]-rat ghrelin
Method: Physiological saline as the control and rat ghrelin (5 μg/head) were also administered and compared with Compound 18.

T1 sequence (O08725 whole entry): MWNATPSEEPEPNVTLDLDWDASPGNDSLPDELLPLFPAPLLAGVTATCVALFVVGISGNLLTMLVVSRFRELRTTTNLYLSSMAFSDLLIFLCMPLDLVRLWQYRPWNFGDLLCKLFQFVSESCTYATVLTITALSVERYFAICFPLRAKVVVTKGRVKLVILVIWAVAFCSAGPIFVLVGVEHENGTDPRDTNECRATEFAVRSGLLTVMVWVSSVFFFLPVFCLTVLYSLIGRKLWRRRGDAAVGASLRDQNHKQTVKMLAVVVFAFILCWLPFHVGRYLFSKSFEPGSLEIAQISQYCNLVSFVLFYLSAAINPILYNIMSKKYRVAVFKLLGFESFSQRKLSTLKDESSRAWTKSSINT

- reaction / affinity with the amino-terminal antibody (in words) [1]: did not react
- IC50 in binding between radioisotope-labeled rat ghrelin and the carboxyl-terminal antibody [3]: 44 fmol
SMILES: CC(C)C[C@H](NC(=O)[C@H](CCCCN)NC(=O)[C@H](C)NC(=O)[C@@H]1CCCN1C(=O)[C@@H]1CCCN1C(=O)[C@H](CCCCN)NC(=O)[C@H](CCCCN)NC(=O)[C@H](CO)NC(=O)[C@H](CCC(=O)O)NC(=O)[C@H](CCCCN)NC(=O)[C@H](CCCNC(=N)N)NC(=O)[C@H](CCC(N)=O)NC(=O)[C@H](CCC(N)=O)NC(=O)[C@H](C)NC(=O)[C@H](CCCCN)NC(=O)[C@H](CCC(N)=O)NC(=O)[C@H](Cc1c[nH]cn1)NC(=O)[C@H](CCC(=O)O)NC(=O)[C@@H]1CCCN1C(=O)[C@H](CO)NC(=O)[C@H](CC(C)C)NC(=O)[C@H](Cc1ccccc1)NC(=O)[C@H](CO)NC(=O)[C@H](CO)NC(=O)CN)C(=O)N[C@@H](CCC(N)=O)C(=O)N1CCC[C@H]1C(=O)N[C@@H](CCCNC(=N)N)C(=O)O [Compound 7, [Ser^3]-rat Ghrelin]
- change in intracellular calcium ion concentration [2]: slightly increased Ca-releasing activity
- Ca-releasing activity (in words) (rat GHS-receptor (GHR-R); CHO-GHSR62 cells): did not show a significant Ca-releasing activity

- EC50 (rat GHS-receptor (GHR-R); CHO-GHSR62 cells (CHO cells expressing rat GHS receptor), FLIPR, read-out: Ca-releasing activity EC50): 5.4 nM
SMILES: CCCCCCCCSC[C@H](NC(=O)[C@H](CO)NC(=O)CN)C(=O)N[C@@H](Cc1ccccc1)C(=O)N[C@@H](CC(C)C)C(=O)N[C@@H](CO)C(=O)N1CCC[C@H]1C(=O)N[C@@H](CCC(=O)O)C(=O)N[C@@H](Cc1c[nH]cn1)C(=O)N[C@@H](CCC(N)=O)C(=O)N[C@@H](CCCCN)C(=O)N[C@@H](C)C(=O)N[C@@H](CCC(N)=O)C(=O)N[C@@H](CCC(N)=O)C(=O)N[C@@H](CCCNC(=N)N)C(=O)N[C@@H](CCCCN)C(=O)N[C@@H](CCC(=O)O)C(=O)N[C@@H](CO)C(=O)N[C@@H](CCCCN)C(=O)N[C@@H](CCCCN)C(=O)N1CCC[C@H]1C(=O)N1CCC[C@H]1C(=O)N[C@@H](C)C(=O)N[C@@H](CCCCN)C(=O)N[C@@H](CC(C)C)C(=O)N[C@@H](CCC(N)=O)C(=O)N1CCC[C@H]1C(=O)N[C@@H](CCCNC(=N)N)C(=O)O [Compound 18, [Cys^3(Octyl)]-rGhrelin]
- incorporation of 3H-thymidine relative to the mean of the physiological saline group, Bone marrow (in tissues) (Wister male rats): 144.5%
- incorporation of 3H-thymidine relative to the mean of the physiological saline group, Duodenum (in DNA fraction) (Wister male rats): 114.0%
- incorporation of 3H-thymidine relative to the mean of the physiological saline group, Jejunum (in DNA fraction) (Wister male rats): 151.0%
- GH level in plasma in 15 min. after administration, M ± S.D. (IGS-SD strain rats; dose 30 nmol/kg i.v., n=3): 2494 ± 253 ng/mL
- GH level in plasma in 15 min. after administration, individual rats (Rat 1-3) (IGS-SD strain rats; dose 30 nmol/kg i.v., rats under Nembutal): 2786 ng/mL and 2342 ng/mL and 2354 ng/mL
- GH-releasing activity (in words) (IGS-SD strain rats; i.v., plasma GH at 15 minutes): strong GH-releasing activity
- GH level in plasma, Mean ± S.D. (Wistar strain male rats; time 0 min): 120 ± 146 ng/mL
- GH level in plasma, individual rats (Rat 1-5) (Wistar strain male rats; time 0 min): 33 ng/mL and 32 ng/mL and 377 ng/mL and 101 ng/mL and 59 ng/mL
- GH level in plasma, Mean ± S.D. (Wistar strain male rats; time 5 min): 450 ± 133 ng/mL
- GH level in plasma, individual rats (Rat 1-5) (Wistar strain male rats; time 5 min): 530 ng/mL and 613 ng/mL and 338 ng/mL and 294 ng/mL and 476 ng/mL
- GH level in plasma, Mean ± S.D. (Wistar strain male rats; time 10 min): 783 ± 324 ng/mL
- GH level in plasma, individual rats (Rat 1-5) (Wistar strain male rats; time 10 min): 959 ng/mL and 1060 ng/mL and 687 ng/mL and 258 ng/mL and 949 ng/mL
- GH level in plasma, Mean ± S.D. (Wistar strain male rats; time 15 min): 1093 ± 506 ng/mL
- GH level in plasma, individual rats (Rat 1-5) (Wistar strain male rats; time 15 min): 1451 ng/mL and 1561 ng/mL and 927 ng/mL and 300 ng/mL and 1229 ng/mL
- GH level in plasma, Mean ± S.D. (Wistar strain male rats; time 20 min): 1067 ± 445 ng/mL
- GH level in plasma, individual rats (Rat 1-5) (Wistar strain male rats; time 20 min): 1299 ng/mL and 1359 ng/mL and 900 ng/mL and 358 ng/mL and 1417 ng/mL
- GH level in plasma, Mean ± S.D. (Wistar strain male rats; time 30 min): 589 ± 229 ng/mL
- GH level in plasma, individual rats (Rat 1-5) (Wistar strain male rats; time 30 min): 800 ng/mL and 726 ng/mL and 469 ng/mL and 245 ng/mL and 704 ng/mL
- GH level in plasma, Mean ± S.D. (Wistar strain male rats; time 60 min): 132 ± 53 ng/mL
- GH level in plasma, individual rats (Rat 1-5) (Wistar strain male rats; time 60 min): 220 ng/mL and 122 ng/mL and 98 ng/mL and 86 ng/mL and 133 ng/mL
